# Source: the NIST ThermoML archive (doi:10.1021/acs.jced.5b00594)
# Numbers after ± are expanded uncertainties.
# Test: wn = mass fraction of the nth substance listed
# Details: 313.15 K, 100 kPa, Liquid, Pycnometric method
mass density (w1 = 0.4722) [kg/m3],mass density (w2 = 0.6151) [kg/m3],SMILES
1391 ± 4,,O=S(=O)([O-])O.[K+] [hydrogen potassium sulfate] + O
,1832 ± 6,O=S(=O)([O-])O.[K+] [hydrogen potassium sulfate] + O=S(=O)(O)O
